From patent EP0041021A2, “Cyclopropane carboxylic acid derivatives, their preparation, their use against parasites in plants and animals, their compositions and their intermediates” (ROUSSEL-UCLAF, priority 1980, dated 1981)

How the values were obtained:
moustiques Culex pipiens = experiment: Insecticidal activity on Culex pipiens mosquitoes, fumigant coil; format: in vivo; details: fumigant coil, 0,60% active ingredient by weight of coil
Procedure: Exemple 6 : Etude de l'activité insecticide. sur moustiques Culex pipiens, du composé ce l'exemple 1 utilisé sous forme de serpentin fumigène.
Des supports neutres de serpentins fumigènes sont imprégnés de matière active en solution dans l'acétone. On lâche dans un cylindre fermé, en verre, de 13,50 dm3, 20 moustiques femelles agées de 4 à 5 jours et intrcduit, pendant 2 minutes, un serpentin fumigène se consumant à une extrémité. On effectue le contrôle de knock-down toutes les minutes et arrête 1.essai 5 minutes après que tous les insectes aient été abattus.

mouche domestique = experiment: Knock-down activity on housefly, direct spray in Kearns and March cylinder; format: in vivo; details: acetone (5%) + Isopar L
Procedure: Exemple 4 : Etude de l'activité de choc sur mouche domestique.
Les insectes tests sont des mouches domestiques femelles âgées de 4 à 5 jours. On opère par pulvérisation directe en cylindre de Kearns et March en utilisant comme solvant un mélange d'acétone (5%) et d'Isopar L (solvant pétrolier) (quantité de solvant utilisée 2 ml en une seconde). On utilise 50 insectes par dose. On effectue les contrôles toutes les minutes jusqu'à 10 minutes, puis à 15 minutes et l'on détermine le KT 50 par les méthodes habituelles.

C=CCC1=C(C)[C@@H](OC(=O)[C@@H]2[C@H](/C=C\C(=O)OC)C2(C)C)CC1=O [Exemple 1, (R cis ΔZ) 2,2-diméthl-3/ 3-méthoxy-oxo-1-propenyl/cyclopropane carboxylatede (1S) 2-méthyl-4-oxo 3-(2-propenyl)-2-cyclopenten-1-yle]
effet létal (moustiques Culex pipiens): 98,3%
ET 50 (moustiques Culex pipiens; 20 female mosquitoes, 13,50 dm3 cylinder): 5,42 mn
KT 50 (mouche domestique; concentration 0,5 g/litre): 1,26 mn
KT 50 (mouche domestique; concentration 0,25 g/litre): 2,02 mn
